The text below walks through data of ChEMBL document CHEMBL5608200, “Design, synthesis, and evaluation of antitumor activity of 2-arylmethoxy-4-(2-fluoromethyl-biphenyl-3-ylmethoxy) benzylamine derivatives as PD-1/PD-l1 inhibitors” (Eur J Med Chem, 2024).

In data set [1] the target is Programmed cell death protein 1/Programmed cell death 1 ligand 1 (Homo sapiens, UniProt Q9NZQ7). Put plainly: Inhibition of human PD-1 to PD-L1 protein-protein interaction by homogeneous-time resolved fluorescence assay. It is filed as protein-complex assay.
Sequence of Programmed cell death protein 1/Programmed cell death 1 ligand 1 (Q15116 whole entry): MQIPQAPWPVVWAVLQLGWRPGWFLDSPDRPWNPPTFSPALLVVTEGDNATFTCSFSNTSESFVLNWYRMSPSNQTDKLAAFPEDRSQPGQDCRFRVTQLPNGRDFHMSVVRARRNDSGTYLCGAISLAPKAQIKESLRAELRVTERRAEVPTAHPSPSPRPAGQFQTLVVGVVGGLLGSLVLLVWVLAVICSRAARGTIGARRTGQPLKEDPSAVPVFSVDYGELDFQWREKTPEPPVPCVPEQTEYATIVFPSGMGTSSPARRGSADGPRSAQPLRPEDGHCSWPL
Sequence of Programmed cell death protein 1/Programmed cell death 1 ligand 1 (Q9NZQ7 whole entry): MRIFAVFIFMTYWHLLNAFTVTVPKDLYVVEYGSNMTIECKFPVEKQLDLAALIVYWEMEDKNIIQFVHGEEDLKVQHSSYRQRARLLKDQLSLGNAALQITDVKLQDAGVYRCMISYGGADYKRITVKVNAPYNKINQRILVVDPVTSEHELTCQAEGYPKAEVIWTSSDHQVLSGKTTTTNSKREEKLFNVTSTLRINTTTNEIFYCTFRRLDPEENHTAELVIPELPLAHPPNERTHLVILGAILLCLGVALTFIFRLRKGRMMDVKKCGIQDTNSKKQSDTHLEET
The target of data set [2] is Programmed cell death protein 1/Programmed cell death 1 ligand 1 (Homo sapiens) (UniProt Q15116+Q9NZQ7). As to conditions: HEK293T, dose 100.0 nM, time 30.0 min.
The nature of data set [3]: Tmax in Sprague-Dawley rat at 50 mg/kg, IG measured upto 48 hrs by LC-MS/MS analysis. As to conditions: in vivo, po. Format: ADME, organism-based.
A short description of data set [4]: AUC(0 to t) in Sprague-Dawley rat at 10 mg/kg, iv measured upto 48 hrs by LC-MS/MS analysis. It is filed as ADME, organism-based. The conditions noted are these: in vivo.
A short description of data set [5]: Cmax in Sprague-Dawley rat at 50 mg/kg, IG measured upto 48 hrs by LC-MS/MS analysis. As to conditions: in vivo, po. It is filed as ADME, organism-based.
Data set [6] in a line: Cytotoxicity against human PBMCs at 1 to 4 uM by CCK-8 assay. It is filed as toxicity, cell-based. The conditions noted are these: pbmc, dose 1-4 µM.
The nature of data set [7]: AUC(0 to t) in Sprague-Dawley rat at 50 mg/kg, IG measured upto 48 hrs by LC-MS/MS analysis. It is filed as ADME, organism-based. The conditions noted are these: in vivo, po.
Data set [8] can be described thus: Clearance in Sprague-Dawley rat at 10 mg/kg, iv measured upto 48 hrs by LC-MS/MS analysis. As to conditions: in vivo. Format: ADME, organism-based.
Data set [9] in a line: Half-life in Sprague-Dawley rat at 50 mg/kg, IG measured upto 48 hrs by LC-MS/MS analysis. It is filed as ADME, organism-based. The conditions noted are these: in vivo, po.
A short description of data set [10]: AUC(0 to infinity) in Sprague-Dawley rat at 10 mg/kg, iv measured upto 48 hrs by LC-MS/MS analysis. Format: ADME, organism-based. As to conditions: in vivo.
A short description of data set [11]: Oral bioavilability in Sprague-Dawley rat at 50 mg/kg measured upto 48 hrs by LC-MS/MS analysis. Format: ADME, organism-based. The conditions noted are these: in vivo.
Data set [12] in a line: Cmax in Sprague-Dawley rat at 10 mg/kg, iv measured upto 48 hrs by LC-MS/MS analysis. Format: ADME, organism-based. As to conditions: in vivo.
A further data set deals with MC-38. The data set is described as follows: Antitumor activity against mouse MC38 cells expressing hPD-L1 implanted in PD-1/PD-L1 humanized C57BL/6 mouse assessed as tumor growth inhibition at 50 mg/kg, IG. Format: functional. The conditions noted are these: MC-38, po, read-out: TGI.
A short description of data set [13]: Tmax in Sprague-Dawley rat at 10 mg/kg, iv measured upto 48 hrs by LC-MS/MS analysis. The conditions noted are these: in vivo. Format: ADME, organism-based.
The nature of data set [14]: Apparent volume of distribution in Sprague-Dawley rat at 10 mg/kg, iv measured upto 48 hrs by LC-MS/MS analysis. It is filed as ADME, organism-based. As to conditions: in vivo.
Data set [15] in a line: Half-life in Sprague-Dawley rat at 10 mg/kg, iv measured upto 48 hrs by LC-MS/MS analysis. It is filed as ADME, organism-based. The conditions noted are these: in vivo.
Data set [16] in a line: Clearance in Sprague-Dawley rat at 50 mg/kg, IG measured upto 48 hrs by LC-MS/MS analysis. It is filed as ADME, organism-based. As to conditions: in vivo, po.
Data set [17] in a line: Apparent volume of distribution in Sprague-Dawley rat at 50 mg/kg, IG measured upto 48 hrs by LC-MS/MS analysis. Format: ADME, organism-based. The conditions noted are these: in vivo, po.
Data set [18] in a line: AUC(0 to infinity) in Sprague-Dawley rat at 50 mg/kg, IG measured upto 48 hrs by LC-MS/MS analysis. Format: ADME, organism-based. As to conditions: in vivo, po.

`OCC(O)CNCc1ccc(OCc2cccc(-c3ccc4c(c3)OCCO4)c2C(F)F)cc1OCc1cccnc1` (stereo not drawn): the IC50 in [1] is 0.0675 µM.
With `N#Cc1cncc(COc2cc(OCc3cccc(-c4ccc5c(c4)OCCO5)c3CF)ccc2CN2CCC(C(=O)O)C2)c1` (stereo not drawn), in data set [2], the inhibition came out at 18.4%. The half-maximal inhibitory concentration (IC50) in data set [1] came to 0.0149 µM.
For `CC(=O)NCCNCc1ccc(OCc2cccc(-c3ccc4c(c3)OCCO4)c2C(F)F)cc1OCc1cncc(C#N)c1`, in that order: 18.4% and 0.0172 µM.
With `N#Cc1cncc(COc2cc(OCc3cccc(-c4ccc5c(c4)OCCO5)c3CF)ccc2CN2CCCCC2C(=O)O)c1` (stereo not drawn), in data set [1], it took 0.1 µM to reach half-maximal inhibition (IC50).
The same measure, in the same setting: the value for `N#Cc1cncc(COc2cc(OCc3cccc(-c4cc(F)ccc4F)c3CF)ccc2CNCCO)c1` was 0.042 µM.
As to `N#Cc1cncc(COc2cc(OCc3cccc(-c4ccc5c(c4)OCCO5)c3CF)ccc2CN[C@@H](CO)C(=O)O)c1`, the inhibition in data set [2] was determined as 22%. In data set [1], the IC50 worked out at 0.0197 µM.
In data set [1], `N#Cc1cccc(COc2cc(OCc3cccc(-c4ccccc4F)c3CF)ccc2CNCCO)c1` gave an IC50 of 0.1 µM.
`N#Cc1cncc(COc2cc(OCc3cccc(-c4ccccc4)c3C(F)(F)F)ccc2CNCCO)c1` showed a 50% inhibitory concentration (IC50) in [1] of 0.0938 µM.
`N#Cc1cncc(COc2cc(OCc3cccc(-c4ccc5c(c4)OCCO5)c3C(F)F)ccc2CNCC(O)CO)c1` (stereo not drawn) gave an inhibition in [2] of 17%. Moreover, in data set [1], the IC50 was 0.0095 µM.
As to `N#Cc1cncc(COc2cc(OCc3cccc(-c4ccccc4F)c3CF)ccc2CN[C@@H](CO)C(=O)O)c1`, the IC50 in data set [1] stood at 0.0127 µM.
With `N#Cc1cncc(COc2cc(OCc3cccc(-c4ccccc4F)c3CF)ccc2CNCCO)c1`, the half-maximal inhibitory concentration (IC50) in data set [1] came to 0.0249 µM.
The same measure, in the same setting: the value for `N#Cc1cncc(COc2cc(OCc3cccc(-c4ccccc4F)c3CF)ccc2CN2CCC(O)C2)c1` (stereo not drawn) was 0.0558 µM; that for `CC(=O)NCCNCc1ccc(OCc2cccc(-c3ccccc3F)c2CF)cc1OCc1cncc(C#N)c1` was 0.0314 µM; that for `CN(C)CCNCc1ccc(OCc2cccc(-c3ccc4c(c3)OCCO4)c2C(F)F)cc1OCc1cccnc1` was 0.1 µM.
Same read-out and setting: the value for `CC(=O)NCCNCc1ccc(OCc2cccc(-c3ccccc3F)c2C(F)F)cc1OCc1cncc(C#N)c1` was 0.1 µM; that for `N#Cc1cncc(COc2cc(OCc3cccc(-c4ccccc4F)c3C(F)F)ccc2CNCC(=O)O)c1` was 0.154 µM.
In [1], `N#Cc1cncc(COc2cc(OCc3cccc(-c4ccccc4F)c3CF)ccc2CN[C@H](CO)C(=O)O)c1` came in with a half-maximal inhibitory concentration (IC50) of 0.01 µM.
On the same count and under the same terms, the value for `N#Cc1cncc(COc2cc(OCc3cccc(-c4ccccc4F)c3CF)ccc2CNCC(=O)O)c1` was 0.0284 µM; that for `CC(=O)NCCNCc1ccc(OCc2cccc(-c3cc(F)ccc3F)c2CF)cc1OCc1cncc(C#N)c1` was 0.1 µM; that for `N#Cc1cccc(COc2cc(OCc3cccc(-c4ccccc4F)c3C(F)F)ccc2CN[C@@H](CO)C(=O)O)c1` was 0.1 µM.
On the same count and under the same terms, the value for `N#Cc1cncc(COc2cc(OCc3cccc(-c4ccccc4F)c3C(F)F)ccc2CNCCO)c1` was 0.0419 µM.
`N#Cc1cncc(COc2cc(OCc3cccc(-c4ccc5c(c4)OCCO5)c3C(F)F)ccc2CN2CCC[C@H]2C(=O)O)c1` had an inhibition in data set [2] of 21.7%. This compound came in with a concentration for half-maximal inhibition (IC50) in data set [1] of 0.0194 µM.
As to `CC(=O)NCCNCc1ccc(OCc2cccc(-c3ccc4c(c3)OCCO4)c2CF)cc1OCc1cncc(C#N)c1`, it took 0.0249 µM to reach half-maximal inhibition in [1] (IC50).
In the case of `N#Cc1cncc(COc2cc(OCc3cccc(-c4ccccc4)c3C(F)(F)F)ccc2CN[C@@H](CO)C(=O)O)c1`, 0.0586 µM corresponded to half-maximal inhibition in [1] (IC50).
As to `N#Cc1cncc(COc2cc(OCc3cccc(-c4ccccc4F)c3CF)ccc2CN2CC(C(=O)O)C2)c1`, in data set [2], the inhibition is 20.5%. In data set [1], the IC50 stood at 0.0188 µM.
Regarding `N#Cc1cncc(COc2cc(OCc3cccc(-c4ccccc4F)c3CF)ccc2CN2CCC(C(=O)O)C2)c1` (stereo not drawn), half-maximal inhibition in [1] (IC50) required 0.0252 µM.
`COc1nc(OCc2cccc(-c3ccccc3)c2C)ccc1CNCCNC(C)=O`: the Tmax in data set [3] was 2.1 h; in data set [13], 7.2 min. The AUC(0-t) at 48 h in data set [4] worked out at 8.6 µg·h/mL; in data set [7], 16.8 µg·h/mL. In addition, the maximum concentration (Cmax) in data set [5] was determined as 5.73 µg/mL; in data set [12], 3.35 µg/mL. In addition, the Activity entry in data set [6] was “Non-Toxic”. In addition, the CL in data set [8] was determined as 1.15 L/h/kg; in [16], 2.95 L/h/kg. The values for the t1/2 in data set [9] and in [15] were 3.13 h and 1.94 h, respectively. The area under the curve AUC(0-inf) in data set [10] stood at 8.71 µg·h/mL; in [18], 16.9 µg·h/mL. Further, the bioavailability in data set [11] turned out to be 39.1%. In the data set on MC-38, the inhibition in vivo at 50 mg/kg came out at 44.6%. Also, the values for the Vz in [14] and in [17] were 12.46 L/kg and 56.85 L/kg, respectively. The inhibition in [2] was 34.6%.
Compound `N#Cc1cncc(COc2cc(OCc3cccc(-c4cc(F)ccc4F)c3CF)ccc2CN[C@@H](CO)C(=O)O)c1` returned an IC50 in [1] of 0.0209 µM.
Same read-out and setting: the value for `CC(=O)NCCNCc1ccc(OCc2cccc(-c3ccccc3F)c2CF)cc1OCc1cccc(C#N)c1` was 0.1 µM; that for `N#Cc1cncc(COc2cc(OCc3cccc(-c4ccccc4F)c3CF)ccc2CN2CCCCC2C(=O)O)c1` (stereo not drawn) was 0.027 µM.
With `N#Cc1cncc(COc2cc(OCc3cccc(-c4ccccc4F)c3CF)ccc2CN2CCC[C@H]2C(=O)O)c1`, the inhibition in data set [2] was found to be 15.4%. Further, in [1], half-maximal inhibition (IC50) was put at 0.0069 µM.
`N#Cc1cccc(COc2cc(OCc3cccc(-c4ccccc4F)c3C(F)F)ccc2CNCCO)c1`: half-maximal inhibition in data set [1] (IC50) was put at 0.1 µM.
Still for that read-out and setting: the value for `N#Cc1cncc(COc2cc(OCc3cccc(-c4ccccc4F)c3C(F)F)ccc2CN2CCC[C@H]2C(=O)O)c1` was 0.12 µM.
In data set [2], `N#Cc1cncc(COc2cc(OCc3cccc(-c4ccc5c(c4)OCCO5)c3CF)ccc2CNCCO)c1` displayed an inhibition of 17.3%. In data set [1], this compound registered an IC50 of 0.0119 µM.
Compound `N#Cc1cccc(COc2cc(OCc3cccc(-c4ccccc4F)c3CF)ccc2CN2CCC[C@H]2C(=O)O)c1` displayed an IC50 in data set [1] of 0.01 µM.
For `N#Cc1cncc(COc2cc(OCc3cccc(-c4ccc5c(c4)OCCO5)c3CF)ccc2CNCC(=O)O)c1`, in data set [1], inhibition was half-maximal at 0.1 µM (IC50).
On the same count and under the same terms, the value for `N#Cc1cncc(COc2cc(OCc3cccc(-c4ccccc4F)c3C(F)F)ccc2CN[C@@H](CO)C(=O)O)c1` was 0.0169 µM; that for `CN(C)CCNCc1ccc(OCc2cccc(-c3ccc4c(c3)OCCO4)c2C(F)F)cc1OCc1cncc(C#N)c1` was 0.0295 µM.
